Laboratory results: patent publication US20260199224A1, “Compositions comprising Sanguisorba officinalis root extract and uses thereof” (Clariant International Ltd, priority 2022, published 2026)

Columns and labels:
[1] = mouse, in vivo; cited from earlier work
[2] = tested on: Clostridium histolyticum collagenase (type IA); assay: Anti-collagenase activity, FALGPA degradation followed by UHPLC; format: biochemical; settings: 25 μM; for Residual activity, ActR (%) of collagenase: 30 minutes
Procedure: FDTA-I and FDTA-II were purified from stimulated roots of Sanguisorba officinalis, where the plant has been stimulated by using a nutrient medium without nitrogen (N/P/K 0/15/40) for 1 to 3 weeks. 10 g of dried and grinded (1 mm) roots were macerated in 100 ml of ethyl acetate for 24 h at 50° C. The purified fraction of FDTA-I and FDTA-II was obtained by preparative HPLC and characterized by mass spectrometry. Ferulic acid and TA have been purchased commercially. In addition, it was also included in the test ziyuglycoside I, an active compound isolated from Sanguisorba officinalis roots known to hold various activities including increased expression of type I collagen. For the comparison, SORE was obtained as presented in example 1. The anti-collagenase inhibiting activity was measured by following the kinetics of collagenase-driven degradation of collagenase substrate: FALGPA (N-[3-(2-Furyl) acryloyl]-Leu-Gly-Pro-Ala) into FAL (N-[3-(2-Furyl) acryloyl]-Leu) and Gly-Pro-Ala.
Briefly, a volume of 100 μL of 1.5 mM solution of FALGPA in 50 mM tricine buffer with 10 mM calcium chloride and 400 mM sodium chloride, pH 7.5 (Bachem, 4006713.0025) was mixed with a volume of 10 μL of test sample or pure solvent of the test sample (positive control), followed by a volume of 10 μL of 0.05 mg/ml of Clostridium histolyticum collagenase (type IA, Sigma-Aldrich, C9891). To determine the rate of enzymatic conversion, the content of FAL was quantified at the beginning of the reaction and 30 minutes after its initialization by stopping the enzymatic conversion of FALGPA by EDTA. To quench the enzymatic conversion, a volume of 50 μL of the test sample was mixed with a volume of 50 μL of EDTA (0.2 M in water). The content of FAL in the samples was then quantified by UHPLC method optimized to separate FALGPA and FAL. The analysis was conducted using Kinetex Biphenyl reverse phase column (150 mm×2.1 mm, 2.6 μm, Phenomenex, Torrance, USA), maintained at 40° C. The mobile phase was composed of water containing 0.1% vol. of formic acid (A) and pure acetonitrile (B), delivered at 0.5 ml/min with the gradient of B phase as follows: 5-41% (0-9 min); 41-90% (9-9.05 min); hold at 90% (9.05-11.50 min); 90-5% (11.50-11.55 min), hold at 5% (11.55-14.50 min). Sample injection volume was 5 μL and FALGPA/FAL detection at 338 nm. Residual activity and the inhibition degree of collagenase in the presence of test sample X was then calculated using the following equation: […]
ActR %—residual activity; Inh %—inhibition degree; AUC—peak area of FAL; EchX tested sample; BL—blank.

[3] = tested on: bovine hyaluronidase, Type IS; assay: Anti-hyaluronidase activity, intact hyaluronic acid by BSA turbidity at 600 nm; format: biochemical; settings: 15 μM
Procedure: FDTA-I and FDTA-II were purified from stimulated roots of Sanguisorba officinalis as described in example 10. In addition, ziyuglycoside I was also included in the test. For the comparison, SORE was prepared as presented in example 1.
Hyaluronidase catalyzes the degradation reaction of hyaluronic acid (HA). The test is based on the quantification of intact HA content in the presence/absence of an extract of interest and/or compounds of interest. The degradation rate of HA content is proportional to enzymatic activity of hyaluronidase and inversely proportional to the inhibition power of the extract.
The reaction mixture was prepared as follows: 37.5 μL of 20 mM PHB buffer pH 7, 187.5 μL of hyaluronidase solution (bovine hyaluronidase, Type IS, Sigma) 0.02 mg/mL, and 25 μL of sample (SORE or pure FDTA-I and FDTA-II to be tested). In the case of table 13, the pure FDTA-I and FDTA-II as well as SORE were in pure propane-1,3-diol. In the case of table 14, the pure FDTA-I and FDTA-II were in 100% ethanol. The mixture was incubated for 10 minutes at room temperature and then 250 μL of HA substrate (0.3 mg/mL in phosphate buffer) are added to initiate the reaction. Incubation is done in a Thermomixer at 37° C., under agitation (450 rpm). The reaction was monitored for 60 minutes with a sampling of the reaction mix (50 μL) every 15 minutes. These samples were inserted into the wells of a microplate containing 200 μL of BSA solution 0.1% pH 3.75 and incubated in BSA for 10 minutes. The HA formed aggregates with the BSA solution which precipitates. Thus, the amount of precipitating BSA was proportional to the optical density at 600 nm which allows to monitor the enzymatic reaction. The microplate was finally inserted into the spectrophotometer and the optical density was measured at this wavelength.

[4] = sample in 100% ethanol (table 14)
[5] = sample in pure propane-1,3-diol (table 13)

Oryzanol
toxicity in mice [1]: did not demonstrate any toxicity

C[C@@H]1CC[C@]2(C(=O)O[C@@H]3O[C@H](CO)[C@@H](O)[C@H](O)[C@H]3O)CC[C@]3(C)C(=CC[C@@H]4[C@@]5(C)CC[C@H](O[C@@H]6OC[C@H](O)[C@H](O)[C@H]6O)C(C)(C)[C@@H]5CC[C@]43C)[C@@H]2[C@]1(C)O [Ziyuglycoside I]
inhibition of collagenase IA (Inh %) [2]: did not have any enzymatic inhibitory effect
Residual activity, ActR (%) of collagenase [2]: 106%
effect on hyaluronidase, in words ([3]; comment on table 14): did not have any effect
Residual activity of hyaluronidase (%) [3, 4]: 107%

COc1cc(/C=C/C(=O)OC2C(O)CC3(C)C(CCC4(C)C3CC=C3C5C(C(=O)O)(CCC(C)C5(C)O)CCC34C)C2(C)C)ccc1O (centres unmarked) [FDTA-I, feruloylated derivative of tormentic acid]
inhibition of collagenase IA (Inh %) [2]: 76%
Residual activity, ActR (%) of collagenase [2]: 24%
effect on hyaluronidase, in words ([3]; comment on table 13): acted as a hyaluronidase inhibitor
effect on hyaluronidase, in words ([3]; comment on table 14): acted as hyaluronidase inhibitors
Residual activity of hyaluronidase (%) [3, 4]: 69%
Residual activity of hyaluronidase (%) [3, 5]: 9.5%

COc1cc(/C=C/C(=O)O)ccc1O [Ferulic acid, ferulic acid]
inhibition of collagenase IA (Inh %) [2]: do not have any effect
Residual activity, ActR (%) of collagenase [2]: 96%
effect on hyaluronidase, in words ([3]; comment on table 13): did not have any effect
Residual activity of hyaluronidase (%) [3, 5]: 103%

COc1cc(/C=C/C(=O)OC2C(O)CC3(C)C(CCC4(C)C3CC=C3C5C(C)C(C)CCC5(C(=O)O)CCC34C)C2(C)C)ccc1O (centres unmarked) [FDTA-II, feruloylated derivative of deoxy-tormentic acid]
inhibition of collagenase IA (Inh %) [2]: 36%
Residual activity, ActR (%) of collagenase [2]: 64%
effect on hyaluronidase, in words ([3]; comment on table 14): acted as hyaluronidase inhibitors
Residual activity of hyaluronidase (%) [3, 4]: 89%

C[C@@H]1CC[C@]2(C(=O)O)CC[C@]3(C)C(=CC[C@@H]4[C@@]5(C)C[C@@H](O)[C@H](O)C(C)(C)[C@@H]5CC[C@]43C)[C@@H]2[C@]1(C)O [TA, tormentic acid]
inhibition of collagenase IA (Inh %) [2]: do not have any effect
Residual activity, ActR (%) of collagenase [2]: 98%
effect on hyaluronidase, in words ([3]; comment on table 13): did not have any effect
Residual activity of hyaluronidase (%) [3, 5]: 98%
